# Laboratory results reported in patent US20040224892A1, “Oligosaccharides in cosmetic or dermatological compositions for stimulating adhesion of keratinocytes to major proteins of the dermoepidermal junction and restoration of epidermal cohesion” (Laboratoires de Biologie Vegetale Yves Rocher, a …, priority 2001, published 2004).
# Legend:
# [1] = tested on: normal human keratinocytes on laminin V; assay: Adhesion of normal human keratinocytes on laminin V (colorimetric crystal violet adherence test); type: cell-based; conditions: manganese chloride 0.5 mM, 45 minutes
# Protocol: The culture medium employed was the defined medium for keratinocyte culture 154 (+additive HKGS) manufactured by Cascade Inc. (USA) and marketed by Tebu (France) containing 0.2 mM of CaCl2, pH 7.2 to 7.4. The keratinocytes were obtained according to the technique described by Boyce and Ham (Boyce S T, Ham R G, J. Invest. Dermatol., 1983, 81, 33s-40s). Pieces of human skin obtain from human prepuces (circumcision) were treated in a manner to isolate their basal human keratinocytes. 3·10^4 live cells were then seeded per cm^2 on 25-cm^2 tissue culture dishes (Coming, Polylabo, France). The keratinocytes were cultured at 37° C. in an incubator with CO2 (5% of CO2, 95% of air and 98% humidity). The medium was changed every two days. Subculture took place when the cells reached subconfluence. The cell layer was then rinsed with PBS, then the cells were trypsinated using the conventional trypsination technique (Trypsin-EDTA (0.05-0.02%) at 37° C.). The cells were then seeded in 75-cm^2 culture dishes. Collagen IV (Becton Dickinson, France), fibronectin (Becton Dickinson, France) and laminin 5, purified in the laboratory (Pousselle P. et al., J. Cell. Biol., 1991, 114(3); 567-576) were used in our experiments. […] An absorbance reading was performed at 570 nm using an ELISA plate reader. […] We then calculated the means of the three absorbance values for each of the triplicates. […]
# [2] = tested on: normal human keratinocytes on collagen IV; assay: Adhesion of normal human keratinocytes on collagen IV (colorimetric crystal violet adherence test); type: cell-based; conditions: manganese chloride 0.5 mM, 45 minutes
# Protocol: The culture medium employed was the defined medium for keratinocyte culture 154 (+additive HKGS) manufactured by Cascade Inc. (USA) and marketed by Tebu (France) containing 0.2 mM of CaCl2, pH 7.2 to 7.4. The keratinocytes were obtained according to the technique described by Boyce and Ham (Boyce S T, Ham R G, J. Invest. Dermatol., 1983, 81, 33s-40s). Pieces of human skin obtain from human prepuces (circumcision) were treated in a manner to isolate their basal human keratinocytes. 3·10^4 live cells were then seeded per cm^2 on 25-cm^2 tissue culture dishes (Coming, Polylabo, France). The keratinocytes were cultured at 37° C. in an incubator with CO2 (5% of CO2, 95% of air and 98% humidity). The medium was changed every two days. Subculture took place when the cells reached subconfluence. The cell layer was then rinsed with PBS, then the cells were trypsinated using the conventional trypsination technique (Trypsin-EDTA (0.05-0.02%) at 37° C.). The cells were then seeded in 75-cm^2 culture dishes. Collagen IV (Becton Dickinson, France), fibronectin (Becton Dickinson, France) and laminin 5, purified in the laboratory (Pousselle P. et al., J. Cell. Biol., 1991, 114(3); 567-576) were used in our experiments. […] An absorbance reading was performed at 570 nm using an ELISA plate reader. […] We then calculated the means of the three absorbance values for each of the triplicates.
substance,measurement,setting,value
Manganese chloride [MnCl2],% adherence (cells alone = 100%),[1]; Laminin 5 1.5 μg/ml,109%
same,% adherence (cells alone = 100%),[1]; Laminin 5 3 μg/ml,97%
same,% adherence (cells alone = 100%),[2]; Collagen IV 10 μg/ml,280%
same,% adherence (cells alone = 100%),[2]; Collagen IV 20 μg/ml,357%
